Source: ChEMBL document CHEMBL6153052, “Development of molecular Trojan horses targeting New Delhi metallo-β-lactamase-1 for the restoration of meropenem susceptibility in drug-resistant bacteria” (Eur J Med Chem, 2025)
Values after ≈ are worked out from the molar mass of the structure shown. Active and inactive are the calls of the source. The calls are words filed in the database; no cut-off is given here.

Legend:
[1] = molecular target: T1, Metallo-beta-lactamase type 2 (Bacteria, UniProt C7C422); assay: Inhibition of NDM-1 (unknown origin)
T1 sequence (C7C422 whole entry): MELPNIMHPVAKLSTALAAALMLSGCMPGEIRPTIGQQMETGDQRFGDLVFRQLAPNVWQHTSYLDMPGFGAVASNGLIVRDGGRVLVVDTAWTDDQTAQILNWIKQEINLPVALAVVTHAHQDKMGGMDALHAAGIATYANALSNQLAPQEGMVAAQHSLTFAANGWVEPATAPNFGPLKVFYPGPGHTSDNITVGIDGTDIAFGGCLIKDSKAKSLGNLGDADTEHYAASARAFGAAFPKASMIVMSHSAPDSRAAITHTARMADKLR

[2] = molecular target: Metallo-beta-lactamase type 2 (Bacteria) (UniProt C7C422); assay: Inhibition of NDM-1 (unknown origin) using nitrocefin as substrate assessed as residual activity at 64 ug/ml preincubated for 15 mins followed by substrate addition by absorbance based assay relative to control; settings: dose 64.0 µg/ml
Sequence of Metallo-beta-lactamase type 2 (Bacteria) (C7C422 whole entry): as above

[3] = test system: Escherichia coli; assay: Synergistic antibacterial activity against Escherichia coli ZJ487 assessed as fractional inhibitory concentration index at 8 ug/ml incubated for 20 hrs in presence of meropenem; assay type: functional; settings: dose 8 µg/ml
[4] = test system: Escherichia coli; assay: Antibacterial activity against Escherichia coli ZJ487 infected in BALB/c mouse assessed as reduction in bacterial count in liver at 10 mg/kg, sc administered at every 12 hr interval measured after 42 hrs; assay type: functional, organism-based
[5] = test system: Escherichia coli; assay: Synergistic bactericidal activity against Escherichia coli ZJ487 at 16 ug/ml incubated for 8 hrs in presence of meropenem; assay type: functional, organism-based; settings: dose 16.0 µg/ml
[6] = test system: Acinetobacter baumannii; assay: Antibacterial activity against Acinetobacter baumannii aba assessed as minimum bacteriostatic concentration incubated for 20 hrs; assay type: functional
[7] = Metabolic stability in rat liver homogenate assessed as parent compound remaining measured after 48 hrs by HPLC analysis; assay type: ADME, tissue-based; settings: read-out: Stability
[8] = Cytotoxicity against HEK293T cells assessed as survival rate at 128 ug/ml incubated for 48 hrs by MTT assay; assay type: toxicity, cell-based, HEK-293T; settings: human, at 128 µg/mL, read-out: Survival
[9] = test system: Klebsiella pneumoniae; assay: Synergistic antibacterial activity against Klebsiella pneumoniae K-N-1 assessed as fractional inhibitory concentration index at 8 ug/ml incubated for 20 hrs in presence of meropenem; assay type: functional; settings: dose 8 µg/ml
[10] = test system: Acinetobacter baumannii; assay: Synergistic antibacterial against Acinetobacter baumannii aba assessed as minimum bacteriostatic concentration of meropenem at 8 ug/ml incubated for 20 hrs; assay type: functional; settings: dose 8 µg/ml
[11] = test system: Escherichia coli; assay: Synergistic antibacterial activity against Escherichia coli ZJ487 infected in BALB/c mouse assessed as reduction in bacterial count in spleen at 10 mg/kg, sc administered at every 12 hr interval measured after 42 hrs in presence of meropenem; assay type: functional, organism-based
[12] = test system: Escherichia coli; assay: Synergistic antibacterial activity against Escherichia coli ZJ487 assessed as fractional inhibitory concentration index upto 64 ug/ml incubated for 24 hrs in presence of meropenem by microdilution checkerboard analysis; assay type: functional; settings: dose <= 64 µg/ml
[13] = molecular target: T1, Metallo-beta-lactamase type 2; assay: Inhibition of NDM-1 (unknown origin) using nitrocefin as substrate assessed as residual activity preincubated for 15 mins followed by substrate addition by absorbance based assay
[14] = test system: Escherichia coli; assay: Synergistic antibacterial activity against Escherichia coli ZJ487 infected in BALB/c mouse assessed as reduction in bacterial count in liver at 10 mg/kg, sc administered at every 12 hr interval measured after 42 hrs in presence of meropenem; assay type: functional, organism-based
[15] = test system: Escherichia coli; assay: Synergistic antibacterial activity against Escherichia coli BL21 assessed as fractional inhibitory concentration index at 8 ug/ml incubated for 20 hrs in presence of meropenem; assay type: functional; settings: dose 8 µg/ml
[16] = test system: Escherichia coli; assay: Antibacterial activity against Escherichia coli ZJ487 infected in BALB/c mouse assessed as reduction in bacterial count in spleen at 10 mg/kg, sc administered at every 12 hr interval measured after 42 hrs; assay type: functional, organism-based
[17] = test system: Escherichia coli; assay: Synergistic bactericidal activity against Escherichia coli BL21 expressing NDM-1 at 16 ug/ml incubated for 8 hrs in presence of meropenem; assay type: functional, organism-based; settings: dose 16.0 µg/ml
[18] = test system: Escherichia coli; assay: Synergistic antibacterial activity against Escherichia coli BL21 expressing NDM-1 assessed as fractional inhibitory concentration index upto 64 ug/ml incubated for 24 hrs in presence of meropenem by microdilution checkerboard analysis; assay type: functional; settings: dose <= 64 µg/ml
[19] = test system: THP-1; assay: Cytotoxicity against human THP-1 cells assessed as survival rate at 128 ug/ml incubated for 48 hrs by MTT assay; assay type: functional; settings: read-out: Survival
[20] = test system: Escherichia coli; assay: Synergistic antibacterial activity against Escherichia coli BL21 assessed as minimum bacteriostatic concentration of meropenem at 8 ug/ml incubated for 20 hrs; assay type: functional; settings: dose 8 µg/ml
[21] = Metabolic stability in rat plasma assessed as parent compound remaining measured after 48 hrs by HPLC analysis; assay type: ADME, cell-free; settings: read-out: Stability
[22] = test system: Escherichia coli; assay: Synergistic antibacterial activity against Escherichia coli ZJ487 assessed as minimum bacteriostatic concentration of meropenem at 8 ug/ml incubated for 20 hrs; assay type: functional; settings: dose 8 µg/ml
[23] = test system: Escherichia coli; assay: Antibacterial activity against Escherichia coli ZJ487 assessed as minimum bacteriostatic concentration incubated for 20 hrs; assay type: functional
[24] = test system: Klebsiella pneumoniae; assay: Synergistic antibacterial activity against Klebsiella pneumoniae K-N-1 assessed as minimum bacteriostatic concentration of meropenem at 8 ug/ml incubated for 20 hrs; assay type: functional; settings: dose 8 µg/ml
[25] = test system: Klebsiella pneumoniae; assay: Antibacterial activity against Klebsiella pneumoniae K-N-1 assessed as minimum bacteriostatic concentration incubated for 20 hrs; assay type: functional
[26] = test system: Escherichia coli; assay: Antibacterial activity against Escherichia coli BL21 assessed as minimum bacteriostatic concentration incubated for 20 hrs; assay type: functional
[27] = test system: Acinetobacter baumannii; assay: Synergistic antibacterial against Acinetobacter baumannii aba assessed as fractional inhibitory concentration index at 8 ug/ml incubated for 20 hrs in presence of meropenem; assay type: functional; settings: dose 8 µg/ml
[28] = molecular target: T1, Metallo-beta-lactamase type 2; assay: Inhibition of C-terminal His-tagged NDM-1 (unknown origin) extracted from Escherichia coli BL21 (DE3) using fluorescent cephalosporin as substrate preincubated for 10 mins followed by substrate addition by fluorescence based assay

O=C(Cc1ccccc1)N[C@H]1C(=O)N2C(C(=O)O)=C(C[S+]([O-])CCC(=O)Oc3c(F)c(F)c(F)c(F)c3F)C[S+]([O-])[C@@H]12 (stereo not given in full)
IC50 [1]: 0.39 µM

Cc1cc(C)cc(CN[C@@H]2C(=O)N3C(C(=O)O)=C(C[Se]c4ccccc4C(=O)Nc4ccccc4)CS[C@H]23)c1
Activity [2]: 69.3%

O=C(O)C1=C(C[Se]c2ccccc2C(=O)Nc2ccccc2)CS[C@@H]2[C@H](NCc3cc(Cl)cc(Cl)c3)C(=O)N12
fractional inhibitory concentration index (FICI) [3]: 0.093 | Activity [4]: inactive | Activity [5]: Not active; Compound Did Not Eradicate Bacteria Completely But Maintained A State Of Significantly Lower Level Compared To Meropenem Alone | MIC [6]: > 512 µg/mL | remaining at 48 h [7]: 59.3% | viability at 48 h, 128 ug/ml [8]: > 100% | fractional inhibitory concentration index (FICI) [9]: 0.281 | MIC [10]: 32 µg/mL | Activity [11]: Active | fractional inhibitory concentration index (FICI) [12]: 0.125 | IC50 [13]: 7.03 µM | Activity [14]: Active | fractional inhibitory concentration index (FICI) [15]: 0.141 | Activity [16]: inactive | Activity [17]: Not active; Compound Did Not Eradicate Bacteria Completely But Maintained A State Of Significantly Lower Level Compared To Meropenem Alone | fractional inhibitory concentration index (FICI) [18]: 0.25 | viability at 128 µg/mL [19]: > 100% | Activity [2]: 6.53% | MIC [20]: 16 µg/mL | remaining at 48 h [21]: > 80% | MIC [22]: 1 µg/mL | MIC [23]: 32 µg/mL (≈ 49.4 µM) | MIC [24]: 16 µg/mL | MIC [25]: 64 µg/mL (≈ 98.9 µM) | MIC [26]: 128 µg/mL (≈ 198 µM) | fractional inhibitory concentration index (FICI) [27]: 0.078

COc1cc(Cl)cc(CN[C@@H]2C(=O)N3C(C(=O)O)=C(C[Se]c4ccccc4C(=O)Nc4ccccc4)CS[C@H]23)c1
Activity [2]: 37.9%

O=C(O)C1=C(C[Se]c2ccccc2C(=O)Nc2ccccc2)CS[C@@H]2[C@H](NCc3ccccc3)C(=O)N12
IC50 [13]: 37.8 µM | Activity [2]: 17.8%

COc1cc(CN[C@@H]2C(=O)N3C(C(=O)O)=C(C[Se]c4ccccc4C(=O)Nc4ccccc4)CS[C@H]23)cc(OC)c1
Activity [2]: 55.8%

O=C(O)C1=C(C[Se]c2ccccc2C(=O)Nc2ccccc2)CS[C@@H]2[C@H](NCc3cc(Cl)nc(Cl)c3)C(=O)N12
Activity [2]: 68.1%

CCOC(=O)[C@]1(CS)C[C@H](C(=O)O)C(C)(C)S1
IC50 [1]: 0.04 µM

O=C(O)C1=C(C[Se]c2ccccc2C(=O)Nc2ccccc2)CS[C@@H]2[C@H](NCc3ccc(Cl)cc3)C(=O)N12
Activity [2]: 54%

O=C(O)C1=C(C[Se]c2ccccc2C(=O)Nc2ccccc2)CS[C@@H]2[C@H](NCc3cc(F)cc(Cl)c3)C(=O)N12
IC50 [13]: 77.8 µM | Activity [2]: 27.8%

O=C(O)C1=C(C[Se]c2ccccc2C(=O)Nc2ccccc2)CS[C@@H]2[C@H](NS(=O)(=O)c3cccs3)C(=O)N12
Activity [2]: 51.6%

CS(=O)(=O)N[C@@H]1C(=O)N2C(C(=O)O)=C(C[Se]c3ccccc3C(=O)Nc3ccccc3)CS[C@H]12
IC50 [13]: 69.7 µM | Activity [2]: 48.9%

O=C(Cc1ccccc1)N[C@@H]1C(=O)N2C(C(=O)O)=C(CSc3cccc4cccnc34)CS[C@H]12
IC50 [28]: 2.31 µM

O=C(O)C1=C(C[Se]c2ccccc2C(=O)Nc2ccccc2)CS[C@@H]2[C@H](NC(=O)n3cnnn3)C(=O)N12
Activity [2]: 72.9%

O=C(O)C1=C(C[Se]c2ccccc2C(=O)Nc2ccccc2)CS[C@@H]2[C@H](NS(=O)(=O)C3CC3)C(=O)N12
IC50 [13]: 114 µM | Activity [2]: 44.1%

CC(C)(C)OC(=O)NCCCCCCn1[se]c2ccccc2c1=O
IC50 [1]: 1.26 µM

Cc1cc(Cl)cc(CN[C@@H]2C(=O)N3C(C(=O)O)=C(C[Se]c4ccccc4C(=O)Nc4ccccc4)CS[C@H]23)c1
IC50 [13]: 72.9 µM | Activity [2]: 30%

O=C(O)C1=C(C[Se]c2ccccc2C(=O)Nc2ccccc2)CS[C@@H]2[C@H](NCc3cccc(Cl)c3)C(=O)N12
Activity [2]: 60.9%

O=C(Cc1ccccc1)N[C@@H]1C(=O)N2C(C(=O)O)=C(C[Se]c3ccccc3C(=O)Nc3ccccc3)CS[C@H]12
IC50 [13]: 90.3 µM | Activity [2]: 23.9%

O=C(O)C1=C(C[Se]c2ccccc2C(=O)Nc2ccccc2)CS[C@@H]2[C@H](NCc3cc(F)cc(F)c3)C(=O)N12
Activity [2]: 41.1%

O=c1c2ccccc2[se]n1-c1ccccc1 [EBSELEN]
IC50 [13]: 16 µM | Activity [2]: 8.05%

N#Cc1cc(Cl)cc(CN[C@@H]2C(=O)N3C(C(=O)O)=C(C[Se]c4ccccc4C(=O)Nc4ccccc4)CS[C@H]23)c1
Activity [2]: 42.3%

O=C(O)C1=C(C[Se]c2ccccc2C(=O)Nc2ccccc2)CS[C@@H]2[C@H](NCc3cccs3)C(=O)N12
IC50 [13]: 52.9 µM | Activity [2]: 25.2%

O=C(O)C1=C(C[Se]c2ccccc2C(=O)Nc2ccccc2)CS[C@@H]2[C@H](NS(=O)(=O)Cc3ccccc3)C(=O)N12
Activity [2]: 63.8%

O=C(O)C1=C(C[Se]c2ccccc2C(=O)Nc2ccccc2)CS[C@@H]2[C@H](NCc3ccccc3Cl)C(=O)N12
Activity [2]: 66.2%

O=C(O)C1=C(C[Se]c2ccccc2C(=O)Nc2ccccc2)CS[C@@H]2[C@H](NC(=O)C3CC3)C(=O)N12
IC50 [13]: 150 µM | Activity [2]: 47.3%

N#CCC(=O)N[C@@H]1C(=O)N2C(C(=O)O)=C(C[Se]c3ccccc3C(=O)Nc3ccccc3)CS[C@H]12
Activity [2]: 61.7%

CCN(CC)[C@@H]1C(=O)N2C(C(=O)O)=C(C[Se]c3ccccc3C(=O)Nc3ccccc3)CS[C@H]12
Activity [2]: 70.2%

O=C(O)C1=C(C[Se]c2ccccc2C(=O)Nc2ccccc2)CS[C@@H]2[C@H](NC(=O)c3ccccc3)C(=O)N12
IC50 [13]: 62.2 µM | Activity [2]: 22.3%

O=C(O)C1=C(C[Se]c2ccccc2C(=O)Nc2ccccc2)CS[C@@H]2[C@H](NCC3CC3)C(=O)N12
Activity [2]: 78.2%

CC1=C(C(=O)O)N2C(=O)[C@@H](NCc3cc(Cl)cc(Cl)c3)[C@H]2SC1
Activity [2]: 99.6%

C[C@@H](O)[C@H]1C(=O)N2C(C(=O)O)=C(S[C@@H]3CN[C@H](C(=O)N(C)C)C3)[C@H](C)[C@H]12 [MEROPENEM]
Activity [4]: inactive | MIC [6]: > 512 µg/mL | Activity [16]: inactive | MIC [25]: > 512 µg/mL

O=C(O)C1=C(C[Se]c2ccccc2C(=O)Nc2ccccc2)CS[C@@H]2[C@H](NC(=O)c3cccs3)C(=O)N12
Activity [2]: 49.5%

O=C(O)C1=C(C[Se]c2ccccc2C(=O)Nc2ccccc2)CS[C@@H]2[C@H](NCc3cc(C(F)(F)F)cc(C(F)(F)F)c3)C(=O)N12
Activity [2]: 61.6%

O=c1c2ccccc2[se]n1-c1ncccc1-c1ccc(F)cc1
IC50 [1]: 11.3 µM

CC(=O)N[C@@H]1C(=O)N2C(C(=O)O)=C(C[Se]c3ccccc3C(=O)Nc3ccccc3)CS[C@H]12
Activity [2]: 88.2%

O=C(O)C1=C(C[Se]c2ccccc2C(=O)Nc2ccccc2)CS[C@@H]2[C@H](NS(=O)(=O)c3ccccc3)C(=O)N12
Activity [2]: 48.4%
